The values below come from US20170334899A1, “AMINO-SUBSTITUTED ISOTHIAZOLES” (Bayer Pharma Aktiengesellschaft, priority 2014, published 2017).

Each structure is given as a SMILES string. Bounds are passed on as bounds.

The target in one experiment is T1, CDK2/CycE (Homo sapiens, UniProt P24941).
T1 construct: GST; purchased ProQinase GmbH (Freiburg, Germany); host or cells: insect cells (Sf9)
The experiment is described as follows: CDK2/CycE kinase assay (TR-FRET). Type of experiment: biochemical. Conditions: avg, read-out: CDK2 avg (IC50 [mol/l]). The method in brief:
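Read-out is a TR-FRET 665/620 nm emission ratio from EDTA-stopped reactions detected with anti-pRB(pSer807/pSer811), Eu-labelled anti-mouse IgG and streptavidin-XL665, scaled between no-enzyme and uninhibited wells. Reaction: Sf9-expressed GST-CDK2/GST-CycE, 15 min compound preincubation, 10 μM ATP, 0.75 μM biotin-peptide, 25 min, 22° C., pH 8.0 Tris buffer.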
A general note: Time-resolved FRET reads energy transfer from a long-lived donor to a nearby acceptor.

In another experiment the test system is HeLa. The experiment can be described thus: Proliferation assay (crystal violet), HeLa. The class given is cell-based. Conditions: Homo sapiens, HeLa, 96 h, HeLa cells; 4 days incubation; crystal violet staining; read-out: IC50 inhibition of proliferation, HeLa. The method, boiled down: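 Crystal violet proliferation readout, 4-day compound incubation, 0.001–10 μM, final DMSO 0.5%. Zero-point plate stained at time of dosing set as 0%, untreated control as 100%; IC50 via 4-parameter fit.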

On to `Cc1nsc(Nc2cnc(C(F)(F)F)cn2)c1C(=O)Nc1ccc(OCCN(C)CC(F)F)nc1` [Example 349, N-(6-{2-[(2,2-difluoroethyl)(methyl)amino]ethoxy}pyridin-3-yl)-3-methyl-5-{[5-(trifluoromethyl)pyrazin-2-yl]amino}-1,2-thiazole-4-carboxamide], for which the IC50 at CDK2/CycE was not below 20000 nM; in the experiment on HeLa, 350 nM.
As to `Cc1nsc(Nc2cnc(C(F)(F)F)cn2)c1C(=O)Nc1ccc(OCCN(C)CC(F)(F)F)nc1` [Example 350, 3-methyl-N-(6-{2-[methyl(2,2,2-trifluoroethyl)amino]ethoxy}pyridin-3-yl)-5-{[5-(trifluoromethyl)pyrazin-2-yl]amino}-1,2-thiazole-4-carboxamide], the figures for the IC50 on CDK2/CycE and in the experiment with HeLa were not below 20000 nM and 280 nM, respectively.
The matching figures for `Cc1nsc(Nc2cnc(C(F)(F)F)cn2)c1C(=O)Nc1ccc(OCCN(C)CCC(F)(F)F)nc1` [Example 351, 3-methyl-N-(6-{2-[methyl(3,3,3-trifluoropropyl)amino]ethoxy}pyridin-3-yl)-5-{[5-(trifluoromethyl)pyrazin-2-yl]amino}-1,2-thiazole-4-carboxamide]: not below 20000 nM and 350 nM.
`Cc1nsc(Nc2cnc(C(F)(F)F)cn2)c1C(=O)Nc1ccc(OCCCN(C)CCF)nc1` [Example 352, N-(6-{3-[(2-fluoroethyl)(methyl)amino]propoxy}pyridin-3-yl)-3-methyl-5-{[5-(trifluoromethyl)pyrazin-2-yl]amino}-1,2-thiazole-4-carboxamide]: the values for the IC50 at CDK2/CycE and in the experiment on HeLa were not below 20000 nM and 1100 nM, respectively.
With `Cc1nsc(Nc2cnc(C(F)(F)F)cn2)c1C(=O)Nc1ccc(OCCCN(C)CC(F)F)nc1` [Example 353, N-(6-{3-[(2,2-difluoroethyl)(methyl)amino]propoxy}pyridin-3-yl)-3-methyl-5-{[5-(trifluoromethyl)pyrazin-2-yl]amino}-1,2-thiazole-4-carboxamide], the IC50 is not below 20000 nM at CDK2/CycE and 330 nM in the experiment with HeLa.
The matching figures for `Cc1nsc(Nc2cnc(C(F)(F)F)cn2)c1C(=O)Nc1ccc(OCCCN(C)CC(F)(F)F)nc1` [Example 354, 3-methyl-N-(6-{3-[methyl(2,2,2-trifluoroethyl)amino]propoxy}pyridin-3-yl)-5-{[5-(trifluoromethyl)pyrazin-2-yl]amino}-1,2-thiazole-4-carboxamide]: not below 20000 nM and 330 nM.
The like results for `Cc1nsc(Nc2cnc(C(F)(F)F)cn2)c1C(=O)Nc1ccc(OCCCN(C)CCC(F)(F)F)nc1` [Example 355, 3-methyl-N-(6-{3-[methyl(3,3,3-trifluoropropyl)amino]propoxy}pyridin-3-yl)-5-{[5-(trifluoromethyl)pyrazin-2-yl]amino}-1,2-thiazole-4-carboxamide] were, in that order, not below 20000 nM and 330 nM.
The like results for `Cc1nsc(Nc2cnc(C(F)(F)F)cn2)c1C(=O)Nc1ccc(CCC2CCN(CC(F)F)CC2)nc1` [Example 356, N-(6-{2-[1-(2,2-difluoroethyl)piperidin-4-yl]ethyl}pyridin-3-yl)-3-methyl-5-{[5-(trifluoromethyl)pyrazin-2-yl]amino}-1,2-thiazole-4-carboxamide] were, in that order, more than 20000 nM and 770 nM.
As to `Cc1nsc(Nc2cnc(C(F)(F)F)cn2)c1C(=O)Nc1ccc(C2CCN(CC(F)F)CC2)nc1` [Example 357, N-{6-[1-(2,2-difluoroethyl)piperidin-4 yl]pyridin-3-yl}-3-methyl-5-{[5-(trifluoromethyl)pyrazin-2-yl]amino}-1,2-thiazole-4-carboxamide], the figures for the IC50 on CDK2/CycE and in the experiment with HeLa were more than 20000 nM and 430 nM, respectively.
With `Cc1nsc(Nc2cnc(C(F)(F)F)cn2)c1C(=O)Nc1ccc(C2CCN(CC(F)(F)F)CC2)nc1` [Example 358, 3-methyl-N-{6-[1-(2,2,2-trifluoroethyl)piperidin-4-yl]pyridin-3-yl}-5-{[5-(trifluoromethyl)pyrazin-2-yl]amino}-1,2-thiazole-4-carboxamide], the IC50 is more than 20000 nM at CDK2/CycE and 320 nM in the experiment with HeLa.
The matching figures for `Cc1nsc(Nc2cnc(C(F)(F)F)cn2)c1C(=O)Nc1ccc(N2CCN(CC(F)F)CC2)nc1` [Example 359, N-{6-[4-(2,2-difluoroethyl)piperazin-1-yl]pyridin-3-yl}-3-methyl-5-{[5-(trifluoromethyl)pyrazin-2-yl]amino}-1,2-thiazole-4-carboxamide]: more than 20000 nM and 640 nM.
The matching figures for `Cc1nsc(Nc2cnc(C(F)(F)F)cn2)c1C(=O)Nc1ccc(N2CCN(CC(F)(F)F)CC2)nc1` [Example 360, 3-methyl-N-{6-[4-(2,2,2-trifluoroethyl)piperazin-1-yl]pyridin-3-yl}-5-{[5-(trifluoromethyl)pyrazin-2-yl]amino}-1,2-thiazole-4-carboxamide]: more than 20000 nM and 350 nM.
Take `Cc1nsc(Nc2cnc(C(F)(F)F)cn2)c1C(=O)Nc1ccc(N2CCN(CCC(F)(F)F)CC2)nc1` [Example 361, 3-methyl-5-{[5-(trifluoromethyl)pyrazin-2-yl]amino}-N-{6-[4-(3,3,3-trifluoropropyl)piperazin-1-yl]pyridin-3-yl}-1,2-thiazole-4-carboxamide]: the values for the IC50 at CDK2/CycE and in the experiment on HeLa were more than 20000 nM and 380 nM, respectively.
On to `Cc1nsc(Nc2cnc(C(F)(F)F)cn2)c1C(=O)Nc1ccc(O[C@H]2CCN(CC(F)F)C[C@@H]2F)nc1` [Example 362], for which the IC50 at CDK2/CycE was more than 20000 nM; in the experiment on HeLa, 340 nM.
With `Cc1nsc(Nc2cnc(C(F)(F)F)cn2)c1C(=O)Nc1ccc(O[C@H]2CCN(CC(F)(F)F)C[C@@H]2F)nc1` [Example 363, N-(6-{[(3S,4S)-3-fluoro-1-(2,2,2-trifluoroethyl)piperidin-4-yl]oxy}pyridin-3-yl)-3-methyl-5-{[5-(trifluoromethyl)pyrazin-2-yl]amino}-1,2-thiazole-4-carboxamide], the IC50 at CDK2/CycE was more than 20000 nM; in the experiment on HeLa, 340 nM.
The matching figures for `Cc1nsc(Nc2cnc(C(F)(F)F)cn2)c1C(=O)Nc1ccc(O[C@H]2CCN(CCC(F)(F)F)C[C@@H]2F)nc1` [Example 364, N-(6-{[(3S,4S)-3-fluoro-1-(3,3,3-trifluoropropyl)piperidin-4-yl]oxy}pyridin-3-yl)-3-methyl-5-{[5-(trifluoromethyl)pyrazin-2-yl]amino}-1,2-thiazole-4-carboxamide]: more than 20000 nM and 290 nM.
For the compound `CCN1CC[C@H](Oc2ccc(NC(=O)c3c(C)nsc3Nc3cnc(C(F)(F)F)cn3)cn2)[C@@H](F)C1` [Example 365, N-(6-{[(3S,4S)-1-ethyl-3-fluoropiperidin-4-yl]oxy}pyridin-3-yl)-3-methyl-5-{[5-(trifluoromethyl)pyrazin-2-yl]amino}-1,2-thiazole-4-carboxamide], the IC50 at CDK2/CycE is more than 20000 nM; with HeLa, 410 nM.
With `Cc1nsc(Nc2cnc(C(F)(F)F)cn2)c1C(=O)Nc1ccc(O[C@@H]2CCN(CC(F)F)C[C@H]2F)nc1` [Example 366, N-(6-{[(3R,4R)-1-(2,2-difluoroethyl)-3-fluoropiperidin-4-yl]oxy}pyridin-3-yl)-3-methyl-5-{[5-(trifluoromethyl)pyrazin-2-yl]amino}-1,2-thiazole-4-carboxamide], the figures for the IC50 on CDK2/CycE and in the experiment on HeLa were more than 20000 nM and 300 nM, respectively.
As for `Cc1nsc(Nc2cnc(C(F)(F)F)cn2)c1C(=O)Nc1ccc(O[C@@H]2CCN(CC(F)(F)F)C[C@H]2F)nc1` [Example 367, N-(6-{[(3R,4R)-3-fluoro-1-(2,2,2-trifluoroethyl)piperidin-4-yl]oxy}pyridin-3-yl)-3-methyl-5-{[5-(trifluoromethyl)pyrazin-2-yl]amino}-1,2-thiazole-4-carboxamide], the results for the IC50 at CDK2/CycE and in the experiment on HeLa were more than 20000 nM and 300 nM, respectively.
As to `Cc1nsc(Nc2cnc(C(F)(F)F)cn2)c1C(=O)Nc1ccc(O[C@@H]2CCN(CCC(F)(F)F)C[C@H]2F)nc1` [Example 368, N-(6-{[(3R,4R)-3-fluoro-1-(3,3,3-trifluoropropyl)piperidin-4-yl]oxy}pyridin-3-yl)-3-methyl-5-{[5-(trifluoromethyl)pyrazin-2-yl]amino}-1,2-thiazole-4-carboxamide], the IC50 on CDK2/CycE is more than 20000 nM; with HeLa, 350 nM.
In the case of `CCN1CC[C@@H](Oc2ccc(NC(=O)c3c(C)nsc3Nc3cnc(C(F)(F)F)cn3)cn2)[C@H](F)C1` [Example 369, N-(6-{[(3R,4R)-1-ethyl-3-fluoropiperidin-4-yl]oxy}pyridin-3-yl)-3-methyl-5-{[5-(trifluoromethyl)pyrazin-2-yl]amino}-1,2-thiazole-4-carboxamide], the IC50 on CDK2/CycE was more than 20000 nM; in the experiment with HeLa it was 390 nM.
Regarding `CCCN1CC[C@H](Oc2ccc(NC(=O)c3c(C)nsc3Nc3cnc(C(F)(F)F)cn3)cn2)[C@@H](F)C1` [Example 370, N-(6-{[(3S,4S)-3-fluoro-1-propylpiperidin-4-yl]oxy}pyridin-3-yl)-3-methyl-5-{[5-(trifluoromethyl)pyrazin-2-yl]amino}-1,2-thiazole-4-carboxamide], the IC50 on CDK2/CycE is more than 20000 nM; in the experiment on HeLa, 300 nM.
For `CCCN1CC[C@@H](Oc2ccc(NC(=O)c3c(C)nsc3Nc3cnc(C(F)(F)F)cn3)cn2)[C@H](F)C1` [Example 371, N-(6-{[(3R,4R)-3-fluoro-1-propylpiperidin-4-yl]oxy}pyridin-3-yl)-3-methyl-5-{[5-(trifluoromethyl)pyrazin-2-yl]amino}-1,2-thiazole-4-carboxamide], the IC50 at CDK2/CycE is more than 20000 nM; in the experiment on HeLa, 320 nM.
